Entries after “also recorded” stand apart in the source; their conditions may differ. Like-named read-outs stand apart in the source and are kept apart here. Values belong to the molecule of their own block, whether it stands above or below them.
How the values were obtained:
TbPARP = TbPARP (Trypanosoma brucei brucei, UniProt Q0PW89); test: biochemical; settings: 500 nM NAD+, 11 min at 25 °C, mean of three dose-response curves
Method: The optimal conditions for the activity of purified recombinant TbPARP, were determined by using a fluorometric activity assay. Incubation at 25 °C with shaking at 300 rpm was placed in propylene plates of 96 wells (Greiner BioOne). To terminate the reaction 2 M KOH (20 μL) and 20 % acetophenone in ethanol (20 μL) were added to each well. After incubating for 10 min at 4 °C, 90 μl of 88 % formic acid was added and incubated in an oven at 110 °C for 5 min. This reaction converts remaining NAD^+ to a fluorescent derivative. After incubation, the plate was allowed to cool down for 15 min and fluorescence was measured using excitation wavelengths of 372 nm and 444 nm for excitation and emission, respectively (Varioskan Flash 4.00.53, Thermo Scientific). Consumption of NAD^+ was detected by the decrease in fluorescence. Experiments were done in triplicates. The activity in control wells were kept under 25 % by optimizing the protein concentration and the incubation time, in order to get a robust signal without slowing down the enzyme activity.
A small set of cations was also tested in order to verify whether the enzymatic activity would depend on them. […] The final assay buffer was 100 mM Na2HPO4/NaH2PO4 pH 7, 500 μM TCEP, 1 μg/μL BSA, and 0.025 mg/mL activated DNA (Sigma Aldrich) and 500 nM NAD^+ (Sigma Aldrich).
Thirty - one compounds were tested. Dilutions from DMSO stocks were made (100 μM, 10 μM and 1 μM) and aliquots of those were used in the enzymatic reaction with 10-fold dilution. Inhibitor solutions were added in triplicates to the plate, followed by the addition of the NAD^+. Reactions were initiated by addition of TbPARP diluted in the same buffer (10 nM). The plate was incubated at 25 °C with shaking (300 rpm, Biosan PST-100 HL) for 45 min. […] To detect any potential fluorescence inherent in the compounds, control reactions were carried out separately with compound alone at 10 μM final concentration. The possible fluorescence quenching properties were controlled using wells within the experimental plate containing the compound with 500 nM NAD^+ in the assay buffer.
The IC50 value for 3-AB (Alexis Biochemicals) was also determined to be used as a reference. Briefly, reaction mix together with the inhibitors at half log dilutions were added to a 96-well plate (10 data points). Reactions were incubated for 11 min at 25 °C after initiating the reaction with the addition of 5 nM TbPARP at a final volume of 50 μL. Measurement of the remaining NAD^+ is described in section Screening of TbPARP inhibitors. All reactions were performed in triplicates and three independent dose response curves were fitted for each inhibitor. Control wells with only NAD^+ or NAD^+ and enzyme were used in the curve fitting, as detailed in our previous work.

hPARP-1 = settings: cited from earlier work
[1] = tested on: wild type procyclic parasites; test: Annexin V / PI flow cytometric cell death analysis; assay type: cell-based, Trypanosoma brucei; settings: 10 μg/mL, apoptosis-like positive control
Method: Parasites were treated with 1 mM H2O2 for different time intervals and the cell death pathway involved was assessed as it has been detailed in our previous work. The exposure of wild type procyclic parasites for 6 and 12 h to 10 μg/mL Concanavalin A type IV (Sigma-Aldrich) confirmed the apoptosis-like death pathway (positive control). […] Results were analyzed with Cyflogic v 1.2.1 software.

[2] = tested on: PAR formation in procyclic T. brucei; test: In culture inhibition of PAR formation after H2O2, Dot blot, procyclic form; assay type: cell-based, Trypanosoma brucei; settings: for reduction of PAR synthesis in the parasite: discussion, parasite form not given; for inhibition of PAR formation in culture, procyclic form: inhibitor at 10-fold in vitro IC50 (0.23 μM 4-ANI; 65 nM EB-47; 29 nM Olaparib; 1.5 μM Rucaparib), 30 min preincubation, 500 μM H2O2 10 min
Method: (§1) T. brucei procyclic strain 29–13 [29] was cultured at 28 °C in SDM-79 (Bioscience) containing 10 % (v/v) FCS and 0002 % hemin. T. brucei bloodstream strain 427 90-13 [29] was cultured at 37 °C in HMI-11 (Iscore’s Modified Dulbecco’s Medium (Invitrogen), 100 mg/L sodium pyruvate, 136.1 mg/L hypoxantine, 38.7 mg/L thymidine, 28.22 mg/L bathocuproinedisulfonic acid, 181.8 mg/L L-cysteine, 3.024 mg/L sodium carbonate, 196 μM β-mercaptoethanol) containing FCS (10 % v/v). Parasite viability was analyzed by microscopy.
(§2) For in culture inhibition assays, parasites of the procyclic form of Trypanosoma brucei were grown for 48 h up to a density of 5×10^6 parasites/mL. Parasites of the bloodstream form were grown for 24 h up to a density of 5×10^5 parasites/mL. In both cases, cells were harvested and preincubated for 30 min or 10 min in PBS-Glucose 2 % with inhibitors added, after which the parasites were treated with 500 μM or 250 μM hydrogen peroxide for procyclic and bloodstream forms, respectively, for 10 min.

[3] = tested on: Trypanosoma brucei procyclic parasites; test: Effect of inhibitors on procyclic parasite growth (OD600, 48 h); assay type: cell-based; settings: 2.5 μM, 48 h, positive control
Method: Trypanosoma brucei procyclic parasites were grown in SDM-79 medium for 48 h until reaching a density of 5×10^6 cells/mL. Aliquots of 200 μl were distributed in 96-well plates and inhibitors were present at different final concentrations, as indicated in the figures. Nifurtimox (NFX) was used as a positive control in concentrations ranging from 0.25–25 μM. Culture density was checked by OD600 after 48 h.
In all experiments, triplicates were done for each condition tested and data significance was assessed by one-way Anova (GraphPad Prism5.03 version Software).

[4] = tested on: Trypanosoma brucei bloodstream parasites; test: Effect of inhibitors on bloodstream parasite growth (Neubauer count, 24 h); assay type: cell-based; settings: Olaparib 29 nM, Rucaparib 1.5 μM, 3-AB 580 μM, Nifurtimox 2.5 μM
Method: Trypanosoma brucei bloodstream parasites were grown in HMI-11 medium for 24 h until reaching a density of 5×10^5 cells/mL. Aliquots of 100 μL were distributed in 96-well plates and inhibitors were added at different concentrations as indicated in the figures. After an incubation period of 24 h, the parasite number was counted with a Neubauer chamber. In all experiments, triplicates were done for each condition tested and data significance was assessed by one-way Anova (GraphPad Prism5.03 version Software).

[5] = tested on: PAR formation in bloodstream T. brucei; test: In culture inhibition of PAR formation after H2O2, Dot blot, bloodstream form; assay type: cell-based, Trypanosoma brucei; settings: inhibitor at 10-fold in vitro IC50 (29 nM Olaparib; 1.5 μM Rucaparib), 10 min preincubation, 250 μM H2O2
Method: as §1, §2

[6] = tested on: RNAi-TbPARP procyclic parasites; test: Growth of Tet induced RNAi-TbPARP procyclic parasites with inhibitor; assay type: cell-based, Trypanosoma brucei; settings: 290 nM inhibitor
Text: A fragment of the TbPARP cDNA (nucleotides 1030 to 1445) [GenBank:DQ679800, Tb927.5.3050] and a fragment of the TbPARG cDNA (nucleotides 593 to 979) [Tb927.9.12810] were sub-cloned into the tetracycline-inducible expression vector p2T7^TI-177 [30] to down-regulate the genes of interest. In addition, whole TbPARP cDNA sequence was sub-cloned into the expression vector p2216 [31] (PCR primer sequences available upon request) to over-express the PARP-eYFP fusion gene.
Not I-linearized RNAi-TbPARP and RNAi-TbPARG constructs and the over-expression construct (10 μg) were transfected into procyclic parasites by electroporation, as described by Downey et al.. The selection of the transfectants was carried out with 20 μg/mL zeocin, and dsRNA and over-expression of the fusion protein was induced with 1.0 μg/mL tetracycline for 3 days.

T. cruzi epimastigotes = settings: cited from earlier work
[7] = tested on: T. brucei procyclic parasites; test: Cell survival (motility) after H2O2 treatment with PARP inhibitor; settings: 29 nM inhibitor
Method: Cell survival was determined by incubating 500 μL of 1 × 10^6 parasites/mL culture in 24-well cell culture plates (Cellstar) for 6 h with different concentrations of H2O2 (30 μM, 95 μM, 300 μM and 950 μM) and counting motile parasites over the total number using a Neubauer chamber. Each condition was tested in triplicates. Statistical significance was assessed with two-way Anova followed by Bonferroni test (version 5.03 of GraphPad Prism for Windows).

[8] = 5 nM TbPARP, read-out: TbPARP IC50
[9] = 5 nM TbPARP, read-out: TbPARP pIC50 ± SEM (converted)

Chain of TbPARP (Q0PW89 entry or part of it): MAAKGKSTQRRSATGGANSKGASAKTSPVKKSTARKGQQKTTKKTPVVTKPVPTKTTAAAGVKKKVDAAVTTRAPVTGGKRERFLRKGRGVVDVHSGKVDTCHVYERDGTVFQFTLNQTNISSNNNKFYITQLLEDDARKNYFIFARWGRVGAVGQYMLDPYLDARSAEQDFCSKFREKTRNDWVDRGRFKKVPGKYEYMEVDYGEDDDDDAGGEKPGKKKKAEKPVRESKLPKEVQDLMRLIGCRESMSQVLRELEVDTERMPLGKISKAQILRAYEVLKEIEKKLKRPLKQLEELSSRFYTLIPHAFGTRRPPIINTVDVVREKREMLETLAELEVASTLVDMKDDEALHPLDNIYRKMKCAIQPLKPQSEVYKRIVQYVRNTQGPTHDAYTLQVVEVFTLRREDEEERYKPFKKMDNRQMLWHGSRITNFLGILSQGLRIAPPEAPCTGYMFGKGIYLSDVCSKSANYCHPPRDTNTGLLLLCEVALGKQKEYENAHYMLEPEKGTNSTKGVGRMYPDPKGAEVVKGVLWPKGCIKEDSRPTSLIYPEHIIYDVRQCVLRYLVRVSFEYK

IC50 (TbPARP; TbPARP IC50, […] nM TbPARP): 680 nM
IC50 (TbPARP; TbPARP pIC50 ± SEM, 5 nM TbPARP): 676 nM
Molecule: Cc1nc(=O)c2cccc(O)c2[nH]1 [NU1025, 8-hydroxy-2-methyl-1,4-dihydroquinazolin-4-one]
IC50 (hPARP-1; reported for human PARP-1): 400 nM

IC50 (TbPARP; [8]): 1100 nM
IC50 (TbPARP; [9]): 1150 nM
Molecule: Oc1nc(C2CC2)nc2c1CSCC2 [RF03876, 2-cyclopropyl-5H,7H,8H-thiopyrano[4,3-d]pyrimidin-4-ol]

IC50 (TbPARP; [8]): 580 nM
IC50 (TbPARP; [9]): 589 nM
Molecule: CN(C)CC(=O)Nc1ccc2[nH]c(=O)c3ccccc3c2c1 [PJ-34, 2-(dimethylamino)-N-(6-oxo-5,6-dihydrophenanthridin-2-yl)acetamide]

Continued, molecule first:

Molecule: Concanavalin A
cell death pattern (Annexin V incorporation) [1]: typical apoptosis response with an increment in Annexin incorporation

Molecule: Nc1ccc2c3c(cccc13)C(=O)NC2=O [Compound 4-ANI, 8-amino-3-azatricyclo[7.3.1.0^{5,13}]trideca-1(12),5,7,9(13),10-pentaene-2,4-dione]
IC50 (TbPARP; [8]): 23 nM
IC50 (TbPARP; [9]): 22.9 nM
reduction of PAR synthesis in the parasite [2]: not able to reduce PAR synthesis in the parasite
inhibition of PAR formation in culture, procyclic form [2]: scarcely inhibited the enzyme
IC50 (hPARP-1): 180 nM

Molecule: Nc1ncnc2c1ncn2[C@@H]1O[C@H](C(=O)N2CCN(CC(=O)Nc3cccc4c3CNC4=O)CC2)[C@@H](O)[C@H]1O [EB-47, 2-(4-{[(2S,3S,4R,5R)-5-(6-amino-9H-purin-9-yl)-3,4-dihydroxyoxolan-2-yl]carbonyl}piperazin-1-yl)-N-(1-oxo-2,3-dihydro-1H-isoindol-4-yl)acetamide]
IC50 (TbPARP; [8]): 6.5 nM
IC50 (TbPARP; [9]): 6.46 nM
reduction of PAR synthesis in the parasite [2]: not able to reduce PAR synthesis in the parasite
inhibition of PAR formation in culture, procyclic form [2]: did not inhibit TbPARP at all

Molecule: CC1CS(=O)(=O)CCN1/N=C/c1ccc([N+](=O)[O-])o1 (stereo not shown) [Nifurtimox]
effect on procyclic parasite growth [3]: slowed down procyclic parasite growth
effect on bloodstream parasite growth [4]: did provoke a decrease on bloodstream parasite growth

Molecule: C[C@]1(c2nc3c(C(N)=O)cccc3[nH]2)CCCN1 [Veliparib, 2-[(2R)-2-methylpyrrolidin-2-yl]-1H-1,3-benzodiazole-4-carboxamide]
IC50 (TbPARP; [8]): 49 nM
IC50 (TbPARP; [9]): 49 nM
Ki (hPARP-1): 5 nM

Molecule: O=c1[nH]ccc2c(O)cccc12 [1,5-Isoquinolinediol, 5-hydroxy-1,2-dihydroisoquinolin-1-one]
IC50 (TbPARP; [8]): 1200 nM
IC50 (TbPARP; [9]): 1230 nM
IC50 (hPARP-1; reported for human PARP-1): 390 nM

Molecule: O=C(c1cc(Cc2n[nH]c(=O)c3ccccc23)ccc1F)N1CCN(C(=O)C2CC2)CC1 [Olaparib, 4-({3-[(4-cyclopropanecarbonylpiperazin-1-yl)carbonyl]-4-fluorophenyl}methyl)-1,2-dihydrophthalazin-1-one]
IC50 (TbPARP; [8]): 2.9 nM
IC50 (TbPARP; [9]): 2.95 nM
inhibition of PAR formation in culture, procyclic form [2]: inhibited PAR formation in culture; also recorded: able to reduce PAR formation
inhibition of PAR formation in culture, bloodstream form [5]: able to inhibit PAR formations in culture; also recorded: able to reduce PAR formation
effect on bloodstream parasite growth [4]: not able to significantly affect T. brucei growth or survival
growth rate of Tet induced RNAi-TbPARP procyclic parasites [6]: no change in growth rate
decrease in growth of T. cruzi epimastigotes in culture (T. cruzi epimastigotes; 25 nM): 50%
parasite viability (motility) in presence versus absence of inhibitor ([7]; 30 μM H2O2, 6 h): no difference in parasite viability
parasite viability (motility) in presence versus absence of inhibitor ([7]; 95 μM H2O2, 6 h): reduced the loss of viability induced by the oxidant
parasite motility in presence versus absence of inhibitor ([7]; 300 μM H2O2, 6 h, not statistically significant): slight protective effect

Molecule: NC(=O)c1cccc(N)c1 [Compound 3-AB, 3-aminobenzamide]
IC50 (TbPARP; [8]): 58000 nM
IC50 (TbPARP; [9]): 57500 nM
effect on bloodstream parasite growth [4]: did provoke a decrease on bloodstream parasite growth
IC50 (hPARP-1; reported for human PARP-1): 22000 nM
effect on T. cruzi growth (T. cruzi epimastigotes; reported earlier, reference not given): reported to diminish T. cruzi growth

Source: article PMC4806436, “Disrupted ADP-ribose metabolism with nuclear Poly (ADP-ribose) accumulation leads to different cell death pathways in presence of hydrogen peroxide in procyclic Trypanosoma brucei” (Parasites & Vectors, 2016)
